Marks after values point to notes of the source that are not given here. Values belong to the molecule of their own block, whether it stands above or below them.
Columns and labels:
TAS1R2/TAS1R3 = target: T1, TAS1R2/TAS1R3 (Homo sapiens, UniProt Q7RTX0+Q8TE23); assay: Calcium mobilization assay, HEK293T-Gα16gust44 cells expressing the sweet taste receptor; conditions: sweet compound alone
T1 sequence (Q8TE23 20-839): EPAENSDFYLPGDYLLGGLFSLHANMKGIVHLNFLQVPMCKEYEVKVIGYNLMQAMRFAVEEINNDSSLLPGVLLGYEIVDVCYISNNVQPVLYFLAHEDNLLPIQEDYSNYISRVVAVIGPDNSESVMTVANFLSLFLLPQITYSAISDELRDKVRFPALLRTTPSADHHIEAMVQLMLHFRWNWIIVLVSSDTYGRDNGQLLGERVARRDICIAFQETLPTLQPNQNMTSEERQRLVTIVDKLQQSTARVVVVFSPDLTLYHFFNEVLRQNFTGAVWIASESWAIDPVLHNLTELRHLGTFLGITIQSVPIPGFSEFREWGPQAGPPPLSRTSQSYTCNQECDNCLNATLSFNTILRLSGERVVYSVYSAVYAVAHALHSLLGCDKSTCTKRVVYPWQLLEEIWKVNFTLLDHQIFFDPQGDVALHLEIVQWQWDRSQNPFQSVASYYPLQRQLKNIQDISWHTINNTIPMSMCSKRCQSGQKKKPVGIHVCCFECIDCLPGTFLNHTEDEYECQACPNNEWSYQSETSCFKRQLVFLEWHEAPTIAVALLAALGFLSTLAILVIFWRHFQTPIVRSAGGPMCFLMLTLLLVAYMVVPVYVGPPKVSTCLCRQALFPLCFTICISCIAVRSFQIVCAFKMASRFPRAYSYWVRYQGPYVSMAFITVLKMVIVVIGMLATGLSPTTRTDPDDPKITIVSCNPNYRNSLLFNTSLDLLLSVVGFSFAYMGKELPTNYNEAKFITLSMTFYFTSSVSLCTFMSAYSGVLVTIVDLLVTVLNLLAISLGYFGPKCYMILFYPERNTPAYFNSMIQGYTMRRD
T1 sequence (Q7RTX0 21-852): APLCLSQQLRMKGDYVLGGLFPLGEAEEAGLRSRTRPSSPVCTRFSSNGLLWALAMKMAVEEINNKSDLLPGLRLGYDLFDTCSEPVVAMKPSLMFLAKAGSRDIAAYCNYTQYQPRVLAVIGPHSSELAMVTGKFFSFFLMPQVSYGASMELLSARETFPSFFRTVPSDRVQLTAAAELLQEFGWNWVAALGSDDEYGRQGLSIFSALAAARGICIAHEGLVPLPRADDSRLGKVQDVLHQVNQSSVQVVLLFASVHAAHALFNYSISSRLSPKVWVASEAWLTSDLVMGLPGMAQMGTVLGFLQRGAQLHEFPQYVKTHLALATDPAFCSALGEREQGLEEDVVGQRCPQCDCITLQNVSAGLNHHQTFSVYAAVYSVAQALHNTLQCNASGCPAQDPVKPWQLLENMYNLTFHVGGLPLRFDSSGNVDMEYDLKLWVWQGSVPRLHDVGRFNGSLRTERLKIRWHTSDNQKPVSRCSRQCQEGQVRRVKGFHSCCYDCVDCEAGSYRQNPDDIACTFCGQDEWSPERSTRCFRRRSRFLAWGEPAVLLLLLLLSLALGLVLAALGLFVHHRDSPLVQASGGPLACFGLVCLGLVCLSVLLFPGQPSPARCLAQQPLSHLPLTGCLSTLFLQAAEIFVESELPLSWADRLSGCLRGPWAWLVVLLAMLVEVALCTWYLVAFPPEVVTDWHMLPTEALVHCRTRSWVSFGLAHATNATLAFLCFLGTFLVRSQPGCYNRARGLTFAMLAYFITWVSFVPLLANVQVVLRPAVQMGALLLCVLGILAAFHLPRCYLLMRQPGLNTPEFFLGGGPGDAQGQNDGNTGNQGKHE
Procedure: Different concentration ranges were tested depending on the injected sweet compound. […] All of the concentration-receptor combinations were measured in triplicate, and each experiment was repeated at least 3 times. The Ca^2+ change was expressed as a fractional change in fluorescent light intensity: ΔF/F = (F − F0)/F0, where F was the fluorescent light intensity at each point, and F0 was the value of fluorescent light emitted prior to stimulus application. To calculate dose–response relationships, the changes in fluorescence upon stimulus application were averaged, mock-subtracted and baseline-corrected. The resulting obtained dose–response data were adjusted by using a 4-parameter logistic equation.

[1] = sucrose = 1; ref Schiffman and Gatlin (1993); cited from earlier work
TAS2R1 = conditions: ref Meyerhof et al. 2010; cited from earlier work
TAS2R8 = conditions: ref Meyerhof et al. 2010; cited from earlier work

Max ΔF/F0 (TAS1R2/TAS1R3; maximal signal amplitude): 0.10 ± 0.03
Molecule: OC[C@H]1O[C@@](CO)(O[C@H]2O[C@H](CO)[C@@H](O)[C@H](O)[C@H]2O)[C@@H](O)[C@@H]1O [Sucrose, reference compound]
Sweetness potency [1]: 1^g

Molecule: O=S(=O)(O)NC1CCCCC1 [cyclamate]
concentration at which activation of TAS2R1 occurs (TAS2R1): approximately 30 mM
concentration at which activation of TAS2R8 occurs (TAS2R8): approximately 30 mM

EC50 (TAS1R2/TAS1R3; read-out: EC50 value): 12 ± 2 µM
B1: thaumatin (protein)
chain: ATFEIVNRCSYTVWAAASKGDAALDAGGRQLNSGESWTINVEPGTNGGKIWARTDCYFDDSGSGICKTGDCGGLLRCKRFGRPPTTLAEFSLNQYGKDYIDISNIKGFNVPMDFSPTTRGCRGVRCAADIVGQCPAKLKAPGGGCNDACTVFQTSEYCCTTGKCGPTEYSRFFKRLCPDAFSYVLDKPTTVTCPGSSNYRVTFCPTA
modifications: 8 disulfide bonds; natural (E957) thaumatin is a mixture of mainly thaumatin I and II
